Patent US20060111305A1, “Metabolites of certain [1,4]diazepino[6,7,1-ij]quinoline derivatives and methods of preparation and use thereof” (Wyeth, priority 2004, published 2006)

What was measured:
[1] = target: T1, 5-HT2C (Homo sapiens, UniProt P28335); conditions: see WO03/091250 and US2004/0009970; cited from earlier work
T1 sequence (P28335 33-458): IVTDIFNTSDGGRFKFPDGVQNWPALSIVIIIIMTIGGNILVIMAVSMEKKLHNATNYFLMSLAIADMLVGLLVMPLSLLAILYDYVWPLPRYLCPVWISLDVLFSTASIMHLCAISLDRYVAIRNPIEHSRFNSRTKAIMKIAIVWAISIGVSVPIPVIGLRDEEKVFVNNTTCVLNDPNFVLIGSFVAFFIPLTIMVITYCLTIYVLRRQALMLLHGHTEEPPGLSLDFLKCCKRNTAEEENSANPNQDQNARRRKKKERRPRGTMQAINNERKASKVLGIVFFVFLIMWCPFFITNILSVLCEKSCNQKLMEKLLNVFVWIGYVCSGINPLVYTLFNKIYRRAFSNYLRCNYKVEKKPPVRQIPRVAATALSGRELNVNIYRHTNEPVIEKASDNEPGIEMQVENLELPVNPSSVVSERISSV

[2] = system: UGT (UDPGA-dependent glucuronidation); assay: Incubation of [14C]DCDQ with human liver microsomes (Km values, metabolite formation); assay type: in vitro ADME; conditions: pH 7.4; 0.5 mg/mL human liver microsomes, [14C]DCDQ 0.5-100 μM, UDPGA, 10 min
Procedure: [^14C]DCDQ was mixed with non-radiolabeled DCDQ (1:3 or 1:5) in the incubations. Microsomal incubations consisted of [^14C]DCDQ, magnesium chloride (10 mM) and liver microsomes incubated in 0.5 mL of 0.1 M potassium phosphate buffer, pH 7.4. [^14C]DCDQ (20 μL) in water was added to the incubation tubes containing buffer, magnesium chloride solution and microsomes. After mixing, the tubes were pre-incubated for 2 minutes in a shaking water bath at 37° C. The reactions were initiated by the addition of UDPGA or the NADPH regenerating system. UDPGA was added to incubations as a 50 μL aliquot of a 20 mM solution in water, to give a final concentration of 2 mM. An NADPH regenerating system (30 μL) was added to incubations to evaluate CYP450-mediated metabolism. The NADPH regenerating system consisted of glucose-6-phosphate (2 mg/mL), glucose-6-phosphate dehydrogenase (0.8 units/mL) and NADP^+ (2 mg/mL). Control incubations were conducted under the same conditions, but without the NADPH generating system, UDPGA or microsomes. All incubations were performed in duplicate. Incubations were stopped by the addition of 0.5 mL ice-cold methanol. Samples were vortex-mixed. Denatured proteins were separated by centrifugation at 4300 rpm and 4° C. for 10 minutes (Model T21 super centrifuge, Sorvall). The protein pellets were extracted with 0.5 mL of methanol. The supernatant was combined for each sample, mixed and evaporated to a volume of about 0.3 mL under a nitrogen stream in a Zymark TurboVap LV evaporator (Caliper Life Science, Hopkinton, Mass.). The concentrated sample was centrifuged and aliquots were radioassayed and analyzed by HPLC. This method recovered an average of 92.1% of the radioactivity from the reaction mixture.
Initial rate conditions were determined for DCDQ metabolism in incubations with human liver microsomes in the presence of NADPH or UDPGA. Incubations for the time course study contained 20 μM of [^14C]DCDQ and 0.5 mg/mL of microsomal proteins, and were incubated at 37° C. with mild shaking for 0, 5, 10, 20, 30, 40, 50 and 60 minutes. The protein dependence study was conducted with 20 μM of [^14C]DCDQ incubated for 20 minutes with 0, 0.1, 0.25, 0.5, 0.75 and 1.0 mg/mL of microsomal proteins.
The Km values were determined with 0.5 mg/mL of human liver microsomes incubated with [^14C]DCDQ for 20 minutes with the NADPH regenerating system or for 10 minutes with UDPGA. [^14C]DCDQ concentrations used were 0.5,1, 5, 10, 25, 50, 75 and 100 μM.
To evaluate species differences in cytochrome P450- and UGT-mediated metabolism, [^14C]DCDQ was incubated for 20 minutes with 0.5 mg/mL liver microsomal proteins from mice, rats, dogs or humans in the presence of the NADPH regenerating system or UDPGA. The assay conditions were the same as described above, and DCDQ concentrations were 12 μM and 56 μM for cytochrome P450- and UGT-mediated metabolism, respectively.
A Waters model 2690 HPLC system (Waters Corp., Milford, Mass.) with a built-in autosampler was used for analysis. Separations were accomplished on a Phenomenex Luna C18(2) column (2×150 mm, 5 μm) (Phenomenex, Torrance, Calif.) coupled with a filter (4×2 mm) cartridge. A variable wavelength UV detector set to monitor 250 nm and Flo-One β Model A525 radioactivity flow detector (Perkin Elmer) with a 250 μL LQTR flow cell were used for data acquisition. The flow rate of Ultima Flow M scintillation fluid was 1 mL/min, providing a mixing ratio of scintillation cocktail to mobile phase of 5:1. The sample chamber in the autosampler was maintained at 4° C., while the column was at ambient temperature of about 20° C. The mobile phase consisted of 10 mM ammonium acetate, pH 4.5 (A) and methanol (B) and was delivered at 0.2 mL/min. The linear gradient conditions were as follows: […]

[3] = Incubation of [14C]DCDQ in rat fecal homogenate (stability); assay type: in vitro ADME; conditions: 37° C. for 24 hours
Procedure: Fecal elimination accounted for 21.1±2.1% of the dosed radioactivity recovered in the first 24 hours post-dosing for male rats. Extraction efficiency for the 8-24 hour fecal samples was 64.3%, while an average of 89.5% of the radioactivity was extracted from incubations of [^14C]DCDQ in control fecal homogenate. […] Metabolite profiles were not obtained from the 0-8 hour fecal samples because of low radioactivity (less than 0.1% of dosed radioactivity).

c1cc2c3c(c1)[C@H]1CCC[C@H]1CN3CCNC2 [DCDQ, (9aR,12aS)-4,5,6,7,9,9a,10,11,12,12a-decahydro-cyclopenta[c][1,4]diazepine[6,7,1-ij]quinoline, reference compound]
5-HT2C agonist activity [1]: potent 5-HT2C agonist

O=C(O)[C@H]1O[C@@H](OC(=O)N2CCN3C[C@@H]4CCC[C@@H]4c4cccc(c43)C2)[C@H](O)[C@@H](O)[C@@H]1O [Metabolite M6, carbamoyl glucuronide of DCDQ]
Km at 10 min [2]: 56.1 µM

c1cc2c3c(c1)[C@H]1CCC[C@H]1CN3CCNC2 [[^14C]DCDQ]
degradation in fecal homogenate [3]: no detectable degradation
